The values that follow are results of earlier work, collected in PMC8228323, “Biodegradation of L-Valine Alkyl Ester Ibuprofenates by Bacterial Cultures” (Materials, 2021).

Each structure is given as a SMILES string.

On the set-up of data set [1]: method as in PMID 20111784. The note with it: CO2 released, 0 to 28 days.
The test system of the next data set is microorganisms. On the set-up: method as in PMID 22644530, PMID 23262323, doi:10.4314/jasem.v25i3.5, PMID 33724810, PMID 33601200. Particulars: at the applied concentration.

For the compound `CCCCCCCCOS(=O)(=O)[O-].CCCOCCOC(=O)Cn1cc[n+](C)c1` [[PrOCH2CH2OCOCH2min][OctOSO3]], the Degree of biodegradability entry in data set [1] is given as “more than 60%”. With `CCCCCCCCOS(=O)(=O)[O-].CCCCOCCOC(=O)Cn1cc[n+](C)c1` [[BuOCH2CH2OCOCH2min][OctOSO3]], the Degree of biodegradability result in data set [1] is on record as “more than 60%”. As to `CC(C)Cc1ccc(C(C)C(=O)O)cc1` (centres unmarked) [IBU, ibuprofen], the “Inhibition of microbial activity” value in the data set on microorganisms was “did not inhibit the microbial activity”. Turning to `CCCCCCCCOS(=O)(=O)[O-].CCOCCOC(=O)Cn1cc[n+](C)c1` [[EtOCH2CH2OCOCH2min][OctOSO3]], in data set [1], the Degree of biodegradability is listed as 59%. For the compound `CCCCCCCCCCCCOS(=O)(=O)[O-].[Na+]` [SDS, sodium dodecyl sulfate], the Degree of biodegradability result in data set [1] is listed as “about 95%”.
